# Patent US20240269158A1, “THERAPEUTIC AGENTS AND METHODS FOR TREATMENT OF BARTONELLOSIS” (THE ADMINISTRATORS OF THE TULANE EDUCATIONAL FUND, priority 2021, published 2024)
# Like-named read-outs stand apart in the source and are kept apart here.
# Tests used:
# B. vinsonii = experiment: Cell-free, liquid culture MBC assay; format: cell-based, B. vinsonii subsp. berkhoffii; details: 96 hrs, plated on blood agar
# Protocol: (§1) The B. henselae strains used were San Antonio 2, 267HO04, a human clinical isolate and B. vinsonii subsp. berkhoffii. Both the bacteria were initially grown on tryptic soy agar (TSA) supplemented with 5% defibrinated sheep blood plates that were either pre-made (Remel, R01198) or homemade, in a humidified atmosphere at 37° C. with 5% CO2 for 7 days. For the preparation of liquid cultures, an individual well-grown colony from the plate was resuspended in 15 ml Falcon tubes containing 3 mL of either Schneider's insect media supplemented with 10% FBS, or Grace's insect media (Gibco, 11605-094) supplemented with 10% FBS, or BAPGM serum-free liquid media. The cultures grew for 7 more days in the atmosphere as above without shaking. The number of viable bacteria was determined by either plating serial dilutions of the culture on plates for CFU or by live/dead staining. Before every experiment, bacteria were mixed well and passed through 22-gauge needle to break large clumps of bacteria.
# (§2) Briefly, the bacterial culture that was treated with therapeutic agents for 96 hrs was collected into a 1.5 ml microcentrifuge tubes and centrifuged at 7000 rpm for 10 min. The supernatant was removed, and the bacterial pellet was washed with 1×PBS twice. The bacterial pellet was then resuspended in 100 μL of 1×PBS, plated onto blood agar plates and incubated at 37° C. with 5% CO2 for about 14 days. This assay was repeated three times with all the 6 different antibiotics (azlocillin, azithromycin, ceftriaxone, doxycycline, gentamicin and ampicillin) and at different concentrations.
# (§3) Therapeutic agent stocks were prepared in the following solvents: 10 mg/ml of ceftriaxone (USP), doxycycline (Fisher scientific, D9891-1G), gentamicin (Fisher scientific, 1405-41-0), ampicillin (Fisher scientific, 69-52-3) and azlocillin (Flightpath) in sterile cell culture grade water, whereas 5 mg/ml of azithromycin (Sigma, PZ0007-5MG) was dissolved in sterile cell culture grade DMSO. Antibiotics were then aliquoted and stored at either −80° C. or −20° C. until further use. On the day of assay, these stock concentrations were diluted to 1 mg/ml and 100 μg/ml in the respected bacterial culture media for MIC and cell-free, liquid culture MBC assays. For the DH82 cell-based MBC assay, antibiotics were diluted in EMEM media supplemented with 15% heat inactivated FBS.
# (§4) For this assay, both B. henselae and B. vinsonii were grown in Grace's insect media and were tested against all of the 6 antibiotics (ceftriaxone, doxycycline, gentamicin, azithromycin, azlocillin, ampicillin). […] However, ceftriaxone, gentamicin, azithromycin, and azlocillin were all bactericidal and completely eliminated the growth at concentrations below 10 µg/ml. Table 2 provides comparison of MBCs for B. henselae and B. vinsonii strains in cell-free liquid culture medium determined by incubating the bacteria with antibiotics in a 96-well plate and plating on tryptic soy agar supplemented with 5% sheep blood. Additionally, MBC for B. henselae determined by DH82 cell-based assay (right column) is provided.
# [1] = test system: B. henselae and B. vinsonii; experiment: Cell-free MBC assay, summary over both species; format: cell-based, Bartonella; details: 10 μg/ml
# Protocol: as §2, §4
# B. henselae = experiment: MIC assay in liquid culture media (OD600); format: cell-based, Bartonella henselae
# Protocol: as §1
# Optical density (OD) of 7-day old bacterial liquid culture that was grown from an individual colony was measured using a spectrophotometer (Bio-Rad, SmartSpec 300, 170-2501). Bacterial culture was then diluted down to an OD of 0.1 ? 3×10^8 cfu/ml with the respective media.
# To determine the MIC of the antibiotics and for the visualization of the bacterial growth, a clear 96-well plate was used. Into each well of a 96-well plate, 50 μl of the 0.1 OD bacterial culture and 50 μl of the liquid media containing antibiotics were added to the wells bringing the total volume to 100 μl of 0.05 OD bacteria (CFU ? 1.5×10^7) in each well. Wells containing only bacteria with solvent used in the dilution of the antibiotics served as a positive control to verify the growth of bacteria. As a negative control, wells containing only media and solvents were used. Each concentration of diluted antibiotic was run in 4 replicates to minimize the error rate. The 96-well plate was covered with the lid and incubated at 37° C. with 5% CO2. OD of the culture was read after 48 hrs and 96 hrs using a hybrid multi-mode microplate reader (Biotek, Synergy H4 hybrid reader) at OD600. The assay was repeated three times.
# as §3
# The determination of susceptibility to therapeutic agents was performed in liquid culture media. Six different therapeutic agents were tested with multiple different concentrations against B. henselae and B. vinsonii. Therapeutic agent concentrations tested were as follows: Ceftriaxone 0.001, 0.01, 0.1, 0.3, 0.5, 1, 2, and 5 μg/ml; doxycycline 0.001, 0.01, 0.1, 0.3, 0.5, 1, 2, 5, and 10 μg/ml, gentamicin: 0.01, 0.1, 0.3, 0.5, 1, 2, 4, 8, and 16 μg/ml, and azithromycin: 0.001, 0.005, 0.02, 0.1, 0.3, 0.5, 1, 2, 5, and 10 μg/ml, were tested based on previous antibiotic susceptibility studies. The following azlocillin dilutions were included: 0.001, 0.005, 0.01, 0.02, 0.5, 1, 2, and 5 μg/ml. The ampicillin dilutions included were as follows: 0.001, 0.005, 0.01, 0.02, 0.5, 1, 2, 4, and 8 μg/ml. Both the species of Bartonella were susceptible to all the antibiotics that were used in BAPGM and Grace's culture liquid mediums. […]
# [2] = Bartonella henselae, BAPGM, read-out: MIC
# [3] = Bartonella henselae, Grace's insect media, read-out: MIC
# [4] = Bartonella henselae, Schneider's insect medium, read-out: MIC
Compound,MBC (B. vinsonii; read-out: MBC) [µg/mL],growth on blood agar plates [1],MIC (B. henselae; [2]) [µg/mL],MIC (B. henselae; [3]) [µg/mL],MIC (B. henselae; [4]) [µg/mL],MBC (B. vinsonii) [µg/mL],MIC (B. henselae; BAPGM) [µg/mL],MIC (B. henselae; Grace's insect media) [µg/mL],MIC (B. henselae; Schneider's insect medium) [µg/mL]
"CC[C@H]1OC(=O)[C@H](C)[C@@H](O[C@H]2C[C@@](C)(OC)[C@@H](O)[C@H](C)O2)[C@H](C)[C@@H](O[C@@H]2O[C@H](C)C[C@H](N(C)C)[C@H]2O)[C@](C)(O)C[C@@H](C)CN(C)[C@H](C)[C@@H](O)[C@]1(C)O [Azithromycin, azithromycin]",2 to 5,no growth on blood agar plates,0.005 to 0.02,0.3 to 0.5,> 0.02,,,,
"CC1(C)S[C@@H]2[C@H](NC(=O)[C@H](NC(=O)N3CCNC3=O)c3ccccc3)C(=O)N2[C@H]1C(=O)O [Azlocillin, azlocillin]",0.25 to 0.5,no growth on blood agar plates,0.01 to 0.02,0.005 to 0.01,> 2,,,,
"CO/N=C(\C(=O)N[C@@H]1C(=O)N2C(C(=O)O)=C(CSc3nc(=O)c(=O)[nH]n3C)CS[C@H]12)c1csc(N)n1 [Ceftriaxone, ceftriaxone]",0.5 to 1,no growth on blood agar plates,0.01 to 0.1,0.01 to 0.1,> 0.3,,,,
gentamicin,,,,,,4.0 to 8.0,0.1 to 0.5,2.0 to 4.0,>1
